Consider 36 compounds from patent publication US20140155445A1, “Compounds and Methods for Treating Cancer and Diseases of the Central Nervous System” (Osta Biotechnologies Inc., priority 2007, published 2014).

Counter-ions that a name gives are not always drawn. Like-named read-outs stand apart in the source and are kept apart here. Bounds are passed on as bounds.

The target in one assay is T1, HO-2 (rat brain) (Rattus norvegicus, UniProt P23711).
T1 construct: brain microsomes were used as a source of HO-2; from tissue; host or cells: brain microsomal fraction of adult male Sprague-Dawley rats
T1 sequence (P23711 1-315): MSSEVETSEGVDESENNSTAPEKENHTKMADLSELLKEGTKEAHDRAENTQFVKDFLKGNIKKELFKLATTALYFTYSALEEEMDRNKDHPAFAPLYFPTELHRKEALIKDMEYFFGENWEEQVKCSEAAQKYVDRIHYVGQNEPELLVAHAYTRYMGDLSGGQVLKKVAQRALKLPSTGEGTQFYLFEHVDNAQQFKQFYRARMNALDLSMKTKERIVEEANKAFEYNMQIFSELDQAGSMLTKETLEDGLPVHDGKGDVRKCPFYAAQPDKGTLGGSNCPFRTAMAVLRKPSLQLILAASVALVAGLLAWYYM
Nature of the assay: HO enzymatic activity in rat brain microsomal fraction (CO formed from methemalbumin, gas chromatography). The assay is classed as biochemical.

The target in another assay is T2, HO-1 (rat spleen) (Rattus norvegicus, UniProt P06762).
T2 construct: Spleen microsomes were used as a source of HO-1; from tissue; host or cells: spleen microsomal fraction of adult male Sprague-Dawley rats
T2 sequence (P06762 1-289): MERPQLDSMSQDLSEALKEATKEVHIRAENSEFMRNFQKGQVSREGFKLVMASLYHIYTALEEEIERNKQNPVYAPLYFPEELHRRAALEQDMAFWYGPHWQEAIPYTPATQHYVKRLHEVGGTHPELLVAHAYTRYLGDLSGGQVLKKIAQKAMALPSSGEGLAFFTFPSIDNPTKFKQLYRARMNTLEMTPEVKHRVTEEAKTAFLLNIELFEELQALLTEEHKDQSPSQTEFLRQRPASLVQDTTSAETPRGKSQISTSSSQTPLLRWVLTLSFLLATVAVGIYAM
In words: HO enzymatic activity in rat spleen microsomal fraction (CO formed from methemalbumin, gas chromatography). In kind it is biochemical.

The mark [1] stands for this setting: rat brain microsomes, average ± standard deviation of replicate experiments, read-out: IC50 HO-2 (rat brain)/μM.
The mark [2] stands for this setting: rat spleen microsomes, average ± standard deviation of replicate experiments, read-out: IC50 HO-1 (rat spleen)/μM.

For `Clc1ccc(CC[C@@]2(Cn3ccnc3)OCC(COc3ccc(I)cc3)O2)cc1` (stereo in doubt) [(2R,4S)-1-[2-[2-(4-chloro-phenyl)-ethyl]-4-(4-iodo-phenoxymethyl)-[1,3]dioxolan-2-ylmethyl]-1H-imidazole hydrochloride], the IC50 on HO-2 (rat brain) (setting [1]) is 15 ± 4 µM; on HO-1 (rat spleen) (setting [2]), 9 ± 3 µM.

In the case of `Clc1ccc(CC[C@@]2(Cn3ccnc3)OC[C@@H](CSc3ccccc3Br)O2)cc1` [(2R,4S)-1-{4-(2-bromo-phenylsulfanylmethyl)-2-[2-(4-chloro-phenyl)-ethyl]-[1,3]dioxolan-2-ylmethyl}-1H-imidazole hydrochloride], the IC50 at HO-2 (rat brain) (setting [1]) worked out at 12.3 ± 0.5 µM; on HO-1 (rat spleen) (setting [2]), 6 ± 1 µM.

`[O-][S+](CCCCn1ccnc1)c1ccccc1` (stereo not drawn) [1-(4-benzenesulfinyl-butyl)-1H-imidazole hydrochloride]: the figures for the IC50 on HO-2 (rat brain) (setting [1]) and at HO-1 (rat spleen) (setting [2]) were 31 ± 5 µM and 18.44 ± 0.04 µM, respectively.

Turning to `O=C(c1ccccc1)C(c1ccccc1)n1ccnc1` (racemic) [(±)-2-imidazol-1-yl-1,2-diphenyl-ethanone hydrochloride], the IC50 was > 100 µM at HO-2 (rat brain) (setting [1]) and 24 ± 6 µM on HO-1 (rat spleen) (setting [2]).

In the case of `CCOC(=O)N1CCC(Nc2nc3ccccc3n2Cc2ccc(F)cc2)CC1`, the IC50 at HO-2 (rat brain) (setting [1]) and at HO-1 (rat spleen) (setting [2]) was > 100 µM throughout.

In the case of `c1cn(CCCCCCCCCCn2ccnc2)cn1` [1,10-bis-(1H-imidazol-1-yl)decane dihydrochloride], the IC50 is ~14 µM at HO-2 (rat brain) (setting [1]) and ~10 µM at HO-1 (rat spleen) (setting [2]).

As for `Clc1ccc(CC[C@@]2(Cn3ccnc3)OC[C@@H](CSc3ccc(Cl)cc3)O2)cc1` [(2R,4S)-2-[2-(4-chlorophenyl)ethyl]-2-[(1H-imidazol-1-yl)methyl]-4-[{(4-chlorophenyl)thio}meth-yl]-1,3-dioxolane hydrochloride], the IC50 at HO-2 (rat brain) (setting [1]) was determined as 12 ± 5 µM; at HO-1 (rat spleen) (setting [2]), 2.8 ± 0.4 µM.

`FC[C@@H]1CO[C@@](CCc2ccc(Cl)cc2)(Cn2ccnc2)O1` [drawing 85, (2R,4S)-2-[2-(4-chlorophenyl)ethyl]-2-[(1H-imidazol-1-yl)methyl]-4-(fluoromethyl)-1,3-dioxolane hydrochloride]: the values for the IC50 at HO-2 (rat brain) (setting [1]) and on HO-1 (rat spleen) (setting [2]) were 4.4 ± 0.4 µM and 1.2 ± 0.01 µM, respectively.

On to `Brc1cccc(C2(Cn3ccnc3)OCCO2)c1` [1-[2-(3-bromo-phenyl)-[1,3]dioxolan-2-ylmethyl]-1H-imidazole hydrochloride], for which the IC50 is > 100 µM on HO-2 (rat brain) (setting [1]) and 4 ± 0.7 µM on HO-1 (rat spleen) (setting [2]).

For the compound `COc1ccc(CCN2CCC(Nc3nc4cc(Cl)c(Cl)cc4n3Cc3ccc(F)cc3)CC2)cc1`, the IC50 at HO-2 (rat brain) (setting [1]) and at HO-1 (rat spleen) (setting [2]) was > 100 µM throughout.

In the case of `OC(CCc1ccccc1)Cn1cnc(-c2ccccc2)c1` (racemic) [(±)-4-phenyl-1-(4-phenyl-imidazol-1-yl)-butan-2-ol hydrochloride], the IC50 at HO-2 (rat brain) (setting [1]) was > 100 µM; at HO-1 (rat spleen) (setting [2]) it was 15 ± 1 µM.

In the case of `O=C(Cn1cncn1)c1ccc(Br)cc1` [1-(4-Bromo-phenyl)-2-[1,2,4]triazol-1-yl-ethanone], the IC50 on HO-2 (rat brain) (setting [1]) came to 50 ± 24 µM; at HO-1 (rat spleen) (setting [2]), 2.7 ± 0.5 µM.

In the case of `[N-]=[N+]=NC[C@@H]1CO[C@@](CCc2ccc(Cl)cc2)(Cn2ccnc2)O1` [(2R,4R)-1-{4-azidomethyl-2-[2-(4-chloro-phenyl)-ethyl]-[1,3]dioxolan-2-ylmethyl}-1H-imidazole], the IC50 on HO-2 (rat brain) (setting [1]) was determined as 38 ± 5 µM; on HO-1 (rat spleen) (setting [2]) it was 3.6 ± 0.2 µM.

Regarding `O=C(Cn1ccnc1)c1ccc2ccc3cccc4ccc1c2c34` [2-Imidazol-1-yl-1-pyren-1-yl-ethanone hydrochloride], the IC50 is > 100 µM on HO-2 (rat brain) (setting [1]) and 14 ± 3 µM on HO-1 (rat spleen) (setting [2]).

As to `O=C(Cn1ccnc1)c1ccc(Cl)cc1Cl` [1-(2,4-dichloro-phenyl)-2-imidazol-1-yl-ethanone hydrochloride], the IC50 at HO-2 (rat brain) (setting [1]) is 15 ± 1 µM; at HO-1 (rat spleen) (setting [2]) it was 2.2 ± 0.5 µM.

For `Nc1ccc(OCC2CO[C@@](CCc3ccc(Cl)cc3)(Cn3ccnc3)O2)cc1` (stereo in doubt) [(2R,4S)-2-[2-(4-chlorophenyl)ethyl]-2-[(1H-imidazol-1-yl)methyl]-4-[(4-aminophenyloxy)meth-yl]-1,3-dioxolane dihydrochloride], the IC50 on HO-2 (rat brain) (setting [1]) came out at 13 ± 4 µM; on HO-1 (rat spleen) (setting [2]), 1.4 ± 0.3 µM.

With `Nc1ccccc1SC[C@H]1CO[C@](CCc2ccc(Cl)cc2)(Cn2ccnc2)O1` [(2S,4R)-2-[2-(4-chlorophenyl)ethyl]-2-[(1H-imidazol-1-yl)methyl]-4-[{(2-aminophenyl)thio}meth-yl]-1,3-dioxolane hydrochloride], the IC50 at HO-2 (rat brain) (setting [1]) was > 100 µM; at HO-1 (rat spleen) (setting [2]), ~4.2 µM.

Take `Clc1ccc(OCCCCCNc2nc3ccccc3[nH]2)cc1` [(1H-Benzoimidazol-2-yl)-[5-(4-chloro-phenoxy)-pentyl]-amine]: the IC50 on HO-2 (rat brain) (setting [1]) is ~105 µM; on HO-1 (rat spleen) (setting [2]), ~98 µM.

As to `c1ccc(OCCCCn2ccnc2)cc1` [1-(4-phenoxy-butyl)-1H-imidazole hydrochloride], the IC50 on HO-2 (rat brain) (setting [1]) came out at 4.6 ± 0.5 µM; at HO-1 (rat spleen) (setting [2]), 4 ± 1 µM.

Turning to `[O-][S+](CCCn1ccnc1)c1ccccc1` (stereo not drawn) [1-(3-benzenesulfinyl-propyl)-1H-imidazole hydrochloride], the IC50 at HO-2 (rat brain) (setting [1]) was 22 ± 3 µM; on HO-1 (rat spleen) (setting [2]), 3.7 ± 0.4 µM.

With `CSc1nnnn1CC(=O)CCc1ccccc1` [1-(5-Methylsulfanyl-tetrazol-1-yl)-4-phenyl-butan-2-one], the IC50 on HO-2 (rat brain) (setting [1]) and at HO-1 (rat spleen) (setting [2]) was > 100 µM in each case.

For `CSc1ncnn1CC(=O)CCc1ccccc1` [1-(5-Methylsulfanyl-[1,2,4]triazol-1-yl)-4-phenyl-butan-2-one hydrochloride], the IC50 at HO-2 (rat brain) (setting [1]) and on HO-1 (rat spleen) (setting [2]) was > 100 µM throughout.

As to `c1cn(CCC23CC4CC(CC(C4)C2)C3)cn1` [1-(2-adamantan-1-yl-ethyl)-1H-imidazole hydrochloride], the IC50 on HO-2 (rat brain) (setting [1]) is > 100 µM; on HO-1 (rat spleen) (setting [2]), 3 ± 1 µM.

As for `CC(C)c1ccc(CCC(=O)Cn2ccnc2)cc1` [1-Imidazol-1-yl-4-(4-isopropyl-phenyl)-butan-2-one hydrochloride], the IC50 at HO-2 (rat brain) (setting [1]) stood at 0.9 ± 0.2 µM; at HO-1 (rat spleen) (setting [2]) it was 0.163 ± 0.009 µM.

Take `C[C@H]1CO[C@@](CCc2ccc(Cl)cc2)(Cn2ccnc2)O1` [(2R,4S)-2-[2-(4-chlorophenyl)ethyl]-2-[(1H-imidazol-1-yl)methyl]-4-methyl-1,3-dioxolane hydrochloride]: the results for the IC50 on HO-2 (rat brain) and at HO-1 (rat spleen) (setting [2]) were > 100 µM and 2.6 ± 0.4 µM, respectively.

As to `Oc1ccc(OCC2CO[C@@](CCc3ccc(Cl)cc3)(Cn3ccnc3)O2)cc1` (stereo in doubt) [(2R,4S)-2-[2-(4-chlorophenyl)ethyl]-2-[(1H-imidazol-1-yl)methyl]-4-[(4-hydroxyphenyloxy)meth-yl]-1,3-dioxolane hydrochloride], the IC50 at HO-2 (rat brain) (setting [1]) is 7.1 ± 0.7 µM; at HO-1 (rat spleen) (setting [2]), 1.8 ± 0.5 µM.

As for `OC(Cn1ccnc1)c1ccc(CCc2ccccc2)cc1` (racemic) [(±)-2-imidazol-1-yl-1-(4-phenethyl-phenyl)-ethanol], the IC50 on HO-2 (rat brain) (setting [1]) worked out at 1 ± 1 µM; at HO-1 (rat spleen) (setting [2]) it was 0.225 ± 0.004 µM.

In the case of `Cl.OC(Cn1ccnc1)Cn1ccnc1` [1,3-Di-(1H-imidazol-1-yl)propan-2-ol dihydrochloride], the “IC50 HO-2 (rat brain)/μM” value against HO-2 (rat brain) (rat brain microsomes, average ± standard deviation of replicate experiments) is given as “Inactive”. On HO-1 (rat spleen) (rat spleen microsomes, average ± standard deviation of replicate experiments), the “IC50 HO-1 (rat spleen)/μM” value is reported as “Inactive”.

On to `CC(C(=O)c1ccccc1)n1ccnc1` (racemic) [(±)-2-imidazol-1-yl-1-phenyl-propan-1-one hydrochloride], for which the results for the IC50 against HO-2 (rat brain) and at HO-1 (rat spleen) were > 100 µM and 49 ± 2 µM, respectively.

As for `CSC[C@@H]1CO[C@@](CCc2ccc(Cl)cc2)(Cn2ccnc2)O1` [(2R,4S)-2-[2-(4-chlorophenyl)ethyl]-2-[(1H-imidazol-1-yl)methyl]-4-[(methylthio)methyl]-1,3-dioxolane hydrochloride], the values for the IC50 at HO-2 (rat brain) (setting [1]) and on HO-1 (rat spleen) (setting [2]) were 19 ± 7 µM and 9 ± 2 µM, respectively.

For the compound `c1ccc2[nH]c(CN3CCCC3)nc2c1`, the IC50 at HO-2 (rat brain) (setting [1]) and at HO-1 (rat spleen) (setting [2]) was > 100 µM throughout.

Take `O=C(CCc1ccccc1)Cn1cnc(Cl)c1Cl` [1-(4,5-Dichloro-imidazol-1-yl)-4-phenyl-butan-2-one hydrochloride]: the IC50 at HO-2 (rat brain) (setting [1]) and on HO-1 (rat spleen) (setting [2]) was > 100 µM each time.

Turning to `c1cn(C2C3CC4CC(C3)CC2C4)cn1` (stereo not drawn), the IC50 at HO-2 (rat brain) (setting [1]) and on HO-1 (rat spleen) (setting [2]) was > 100 µM each time.

In the case of `O=C(Cn1ccnc1)c1ccc(-c2ccc(Br)cc2)cc1` [1-(4′-bromo-biphenyl-4-yl)-2-imidazol-1-yl-ethanone], the IC50 at HO-2 (rat brain) (setting [1]) came to 0.43 ± 0.07 µM; on HO-1 (rat spleen) (setting [2]), 1.5 ± 0.5 µM.

As to `O=C(CCc1ccc(C(F)(F)F)cc1)Cn1ccnc1` [4-(4-(Trifluoromethyl)phenyl)-1-(1H-imidazol-1-yl)-2-butanone hydrochloride], the figures for the IC50 on HO-2 (rat brain) (setting [1]) and at HO-1 (rat spleen) (setting [2]) were 1.4 ± 0.1 µM and 0.25 ± 0.01 µM, respectively.

Regarding `OC[C@@H]1CO[C@@](CCc2ccc(Cl)cc2)(Cn2ccnc2)O1` [(2R,4R)-2-[2-(4-chlorophenyl)ethyl]-2-[(1H-imidazol-1-yl)methyl]-4-(hydroxymethyl)-1,3-dioxolane hydrochloride], the IC50 on HO-2 (rat brain) (setting [1]) was > 100 µM; on HO-1 (rat spleen) (setting [2]), 12 ± 2 µM.
